In PubChem BioAssay (NCI) one finds TGI and GI50 data, which are given here for 26 compounds.

The structures appear in SMILES notation. Where “and” joins values, the source holds several entries; their conditions need not be identical. Identical values can stand only once.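 Compound exposure: 48 hours, 5 concentrations, 96-well plates. The concentration for 50% growth inhibition is given as GI50. TGI marks complete inhibition of growth.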

Some test systems named below: DLD-1 colon; HOP-18 NSCLC; KM20L2 colon; LXFL 529 NSCLC; SNB-78 CNS; M19-MEL melanoma; MDA-MB-435; BT-549 breast; MDA-MB-231 breast; MCF7 breast; DU-145 prostate.
Test in all cases: inhibition of tumour cell growth, NCI panel, 48 h

Regarding `CC(C)=CC(=O)C1c2cccc(O)c2C(=O)c2c(O)cc(C)cc21` (stereo not drawn), the TGI worked out at 7.89 µM with DLD-1 colon; 4.03 µM in the assay on HOP-18 NSCLC; 17.6 µM with KM20L2 colon; 4.47 µM with LXFL 529 NSCLC; 7.84 µM in the assay on SNB-78 CNS; 3.43 µM in the assay with M19-MEL melanoma.

Consider `O=C(O)CCc1coc2ccc(O)cc12`, for which the TGI in the assay on DLD-1 colon, in the assay with HOP-18 NSCLC, with KM20L2 colon, with LXFL 529 NSCLC, with SNB-78 CNS and in the assay on M19-MEL melanoma was above 100 µM each time.

For the compound `COC(=O)CC1CCN(C#N)CC1CC[N+](=O)[O-]` (stereo not drawn), the TGI in the assay on DLD-1 colon, in the assay on HOP-18 NSCLC, in the assay with KM20L2 colon, in the assay on LXFL 529 NSCLC, with SNB-78 CNS and in the assay on M19-MEL melanoma was above 100 µM each time.

For the compound `Cc1ccc(N=Nc2ccc(N(CCC#N)CCC#N)cc2C)c(Br)c1`, the TGI in the assay with DLD-1 colon, in the assay with HOP-18 NSCLC, in the assay with LXFL 529 NSCLC, with SNB-78 CNS and in the assay with M19-MEL melanoma was above 100 µM throughout.

In the case of `CC(C)C/C(CC(=O)CCC(=O)Nc1ccccc1[N+](=O)[O-])=N\NC(=O)c1cc2ccccc2cc1O`, the TGI with DLD-1 colon is above 100 µM; with HOP-18 NSCLC it was above 100 µM; in the assay on KM20L2 colon, above 100 µM; with LXFL 529 NSCLC it was above 100 µM; with M19-MEL melanoma it was 65.1 µM.

For `Cn1cnc([N+](=O)[O-])c1Sc1nnc(-c2cccnc2)n1C`, the TGI was 30.2 µM in the assay on MDA-MB-435; 40.5 µM with DLD-1 colon; 35.6 µM in the assay with HOP-18 NSCLC; 36.5 µM in the assay with BT-549 breast; above 100 µM in the assay with KM20L2 colon; 39.4 µM in the assay with MDA-MB-231 breast. The TGI with MCF7 breast was 46.8 µM; with LXFL 529 NSCLC, 24.4 µM; in the assay on SNB-78 CNS, 63.2 µM; with M19-MEL melanoma, 38.8 µM; with DU-145 prostate, above 80.7 µM.

For the compound `CCOc1ccc(NC(=O)C(=O)CC(=O)c2c[n+](=O)c3cc(C)c(C)cc3n2[O-])cc1`, the TGI in the assay on HOP-18 NSCLC, in the assay on KM20L2 colon, in the assay with LXFL 529 NSCLC, with SNB-78 CNS and in the assay with M19-MEL melanoma was above 100 µM throughout.

Take `O=C(N/C(=C\c1ccc(/C=C(\NC(=O)c2ccccc2)c2nc3cc([N+](=O)[O-])ccc3[nH]2)cc1)c1nc2cc([N+](=O)[O-])ccc2[nH]1)c1ccccc1`: the TGI in the assay with DLD-1 colon, in the assay on HOP-18 NSCLC, in the assay with KM20L2 colon, in the assay with LXFL 529 NSCLC, in the assay on SNB-78 CNS and in the assay on M19-MEL melanoma was above 100 µM in each case.

With `COC(CN1C(=O)c2cccc3cccc(c23)C1=O)OC`, the TGI in the assay with DLD-1 colon, in the assay with HOP-18 NSCLC, in the assay with KM20L2 colon, in the assay on LXFL 529 NSCLC, with SNB-78 CNS and in the assay on M19-MEL melanoma was above 100 µM each time.

Turning to `CCCCCCCCCCCCCCCCCC(CCCCCCCCCCCCCCCCC)OP(=O)(O)O`, the TGI in the assay with HOP-18 NSCLC, with KM20L2 colon, in the assay on LXFL 529 NSCLC, in the assay with SNB-78 CNS and with M19-MEL melanoma was above 100 µM each time.

On to `COC1(OC)CCC2C1C1CCC(OC)(OC)C21` (stereo not drawn), for which the TGI with DLD-1 colon, in the assay on HOP-18 NSCLC, in the assay on KM20L2 colon, with LXFL 529 NSCLC, in the assay with SNB-78 CNS and in the assay on M19-MEL melanoma was above 50 µM throughout.

Consider `CN1C(=O)C(C)(C)C2(SC(C)(C)C2(C)C)N(C)C1=S` (stereo not drawn), for which the TGI in the assay with DLD-1 colon, with HOP-18 NSCLC, in the assay on LXFL 529 NSCLC, in the assay on SNB-78 CNS and in the assay with M19-MEL melanoma was above 100 µM throughout.

For the compound `COc1cc2c(cc1OC)-c1c3cc(O)ccc3nn[n+]1CC2`, the TGI in the assay on DLD-1 colon, with HOP-18 NSCLC, in the assay with KM20L2 colon, in the assay with LXFL 529 NSCLC, with SNB-78 CNS and in the assay on M19-MEL melanoma was above 100 µM throughout.

As for `C/C(CC(=O)CCC(=O)Nc1cccc(C(F)(F)F)c1)=N\NC(=O)NN`, the TGI with DLD-1 colon, in the assay on HOP-18 NSCLC, in the assay with KM20L2 colon, in the assay with LXFL 529 NSCLC, in the assay with SNB-78 CNS and with M19-MEL melanoma was above 100 µM in each case.

Regarding `COC(=O)[C@@H]1[C@H](O)[C@H](C)[C@H](O)[C@@](C)(O)/C=C\C=C(C)C(=O)Nc2c(C)c(OC(C)=O)c3c(c2O)C(=O)C(C)=C2OCOC(=C23)C(C)=C[C@@](C)(O)[C@H](O)[C@@H](C)[C@H]1OC(C)=O`, the GI50 was 40.7 µM in the assay with DLD-1 colon, 41.3 µM in the assay with HOP-18 NSCLC, 35.6 µM with LXFL 529 NSCLC and 15 µM in the assay on M19-MEL melanoma. For the same compound, the TGI in the assay with DLD-1 colon is > 100 µM and 66.9 µM; with HOP-18 NSCLC, > 100 µM and 66.9 µM; in the assay on KM20L2 colon it was 66.9 µM and > 100 µM; in the assay on LXFL 529 NSCLC it was > 100 µM and 66.9 µM; in the assay with SNB-78 CNS, above 100 µM; in the assay on M19-MEL melanoma, > 100 µM and 21.6 µM and 28.3 µM. For the same compound, the TGI in the assay with DU-145 prostate was above 66.9 µM.

For the compound `O=C(/C=C/c1ccccc1)NC1C=Nc2ccc(Cl)cc2NC1=O` (stereo not drawn), the TGI with DLD-1 colon is above 100 µM; in the assay with HOP-18 NSCLC, above 100 µM; with KM20L2 colon it was 62.9 µM; in the assay on LXFL 529 NSCLC it was above 100 µM; in the assay on SNB-78 CNS, above 100 µM; in the assay on M19-MEL melanoma it was 64.5 µM.

In the case of `O=C(COc1ccc(Br)cc1Br)N1N=C(c2ccc([N+](=O)[O-])o2)CC1(O)c1ccccc1` (stereo not drawn), the TGI in the assay on DLD-1 colon was 30.2 µM; in the assay on HOP-18 NSCLC it was 41 µM; in the assay with KM20L2 colon, 58.8 µM; in the assay with LXFL 529 NSCLC, 21.6 µM; with SNB-78 CNS, above 100 µM.

As to `O=C1C(=O)N(c2ccc(Cl)cc2Cl)C(=O)C(=O)C1c1nc2ccccc2s1`, the TGI was above 92.2 µM with DLD-1 colon; above 100 µM in the assay on HOP-18 NSCLC; above 100 µM in the assay with KM20L2 colon; above 100 µM in the assay with LXFL 529 NSCLC; above 100 µM in the assay with M19-MEL melanoma.

`O=CN/C=C/c1cc(O)ccc1O`: the TGI in the assay with DLD-1 colon was 34.4 µM; in the assay with HOP-18 NSCLC it was above 56.8 µM; in the assay with KM20L2 colon, above 80.3 µM; in the assay with MCF7 breast, 30.2 µM; in the assay with LXFL 529 NSCLC, 23.9 µM; in the assay on SNB-78 CNS, 44.3 µM. Moreover, the TGI is 28.5 µM with M19-MEL melanoma and above 100 µM in the assay on DU-145 prostate.

Consider `Clc1cc2nsnc2c(Cl)n1`, for which the TGI was 42.1 µM with DLD-1 colon; 31.7 µM in the assay with HOP-18 NSCLC; above 100 µM with KM20L2 colon; 27.8 µM in the assay on LXFL 529 NSCLC; above 100 µM with SNB-78 CNS; 75.5 µM with M19-MEL melanoma.

Consider `N#CC1C(C#N)C2(c3ccccc3)C(c3ccccc3)=NN(c3ccccc3)CC12` (stereo not drawn), for which the TGI with DLD-1 colon, in the assay with HOP-18 NSCLC, in the assay on KM20L2 colon, in the assay with LXFL 529 NSCLC, in the assay on SNB-78 CNS and in the assay with M19-MEL melanoma was above 100 µM in each case.

As to `O=C1/C(=C/c2ccccc2)CN(C(=O)C(Cl)(Cl)Cl)C/C1=C\c1ccccc1`, the TGI with DLD-1 colon came out at 4.28 µM; with HOP-18 NSCLC it was 9.6 µM; in the assay with KM20L2 colon, 4.67 µM; with LXFL 529 NSCLC, 3.38 µM; in the assay on SNB-78 CNS, 7.54 µM; in the assay with M19-MEL melanoma it was 2.68 µM.

Take `Cc1cc(C)nc(NS(=O)(=O)c2ccc(NC(=O)c3ccc(Cl)c4c(Nc5ccc(S(=O)(=O)Nc6nc(C)cc(C)n6)cc5)c5ccccc5nc34)cc2)n1`: the TGI in the assay with DLD-1 colon is 84.2 µM; in the assay on HOP-18 NSCLC, 6.53 µM; in the assay with KM20L2 colon, 69.9 µM; in the assay with LXFL 529 NSCLC it was 61.2 µM; with SNB-78 CNS, above 100 µM; with M19-MEL melanoma, 8.28 µM.

Take `CC1=C(C(=O)NCc2ccccc2)C(/C=C/c2ccccc2)C(C(=O)NCc2ccccc2)=C(C)N1`: the TGI with DLD-1 colon, in the assay with HOP-18 NSCLC, with KM20L2 colon, in the assay with LXFL 529 NSCLC, in the assay with SNB-78 CNS and in the assay with M19-MEL melanoma was above 100 µM throughout.

For `O=S1(=O)c2ccccc2NC(c2ccc3ccccc3c2)CC1c1ccccc1F` (stereo not drawn), the TGI in the assay with DLD-1 colon is above 100 µM; in the assay with HOP-18 NSCLC it was 56.1 µM; with KM20L2 colon, above 100 µM; with M19-MEL melanoma it was above 100 µM.

On to `C=C1C(=O)C23CC1CCC2C12CO[C@@H]4OCC(C)(CC[C@@H]1OC3=O)C42` (stereo partly drawn), for which the TGI is 15.5 µM in the assay on HOP-18 NSCLC; 17.5 µM in the assay with KM20L2 colon; 9.39 µM in the assay with LXFL 529 NSCLC; 9.57 µM in the assay with SNB-78 CNS; 19.6 µM with M19-MEL melanoma.
